Columns and labels:
HDAC9 = HDAC9 (Homo sapiens, UniProt Q9UKV0); assay: in vitro HDAC inhibition assay (fluorescence), HDAC9; type: biochemical; settings: read-out: Percentage Inhibition
Procedure: (§1) Briefly, all of the compounds are dissolved in DMSO. A series of dilutions of the compounds were prepared with 10% DMSO in HDAC assay buffer and 5 μl of the dilution was added to a 50 μl reaction so that the final concentration of DMSO is 1% in all of reactions. The compounds were pre-incubated in duplicate at RT for 1 hour in a mixture containing HDAC assay buffer, 5 μg BSA, HDAC enzyme (see Table 7) and a the particular HDACi. After 1 hour, the enzymatic reactions were initiated by the addition of HDAC substrate (BPS Bioscience) to a final concentration of 10 μM or 2 μM. The enzymatic reaction proceeded for 30 minutes at 37° C.
(§2) HDAC activity assays were performed in duplicates at each concentration. The fluorescent intensity data were analyzed using the computer software, Graphpad Prism. In the absence of the compound, the fluorescent intensity (Ft) in each data set was defined as 100% activity. In the absence of HDAC, the fluorescent intensity (Fb) in each data set was defined as 0% activity. The percent activity in the presence of each compound was calculated according to the following equation: % activity=(F−Fb)/(Ft−Fb), where F=the fluorescent intensity in the presence of the compound. […]

HDAC4 = HDAC4 (Homo sapiens, UniProt P56524); assay: in vitro HDAC inhibition assay (fluorescence), HDAC4; type: biochemical; settings: read-out: Percentage Inhibition
Procedure: as §1, §2

HDAC7 = target: T1, HDAC7 (Homo sapiens, UniProt Q8WUI4); assay: in vitro HDAC inhibition assay (fluorescence), HDAC7; type: biochemical; settings: read-out: Percentage Inhibition
T1 sequence (Q8WUI4 1-952): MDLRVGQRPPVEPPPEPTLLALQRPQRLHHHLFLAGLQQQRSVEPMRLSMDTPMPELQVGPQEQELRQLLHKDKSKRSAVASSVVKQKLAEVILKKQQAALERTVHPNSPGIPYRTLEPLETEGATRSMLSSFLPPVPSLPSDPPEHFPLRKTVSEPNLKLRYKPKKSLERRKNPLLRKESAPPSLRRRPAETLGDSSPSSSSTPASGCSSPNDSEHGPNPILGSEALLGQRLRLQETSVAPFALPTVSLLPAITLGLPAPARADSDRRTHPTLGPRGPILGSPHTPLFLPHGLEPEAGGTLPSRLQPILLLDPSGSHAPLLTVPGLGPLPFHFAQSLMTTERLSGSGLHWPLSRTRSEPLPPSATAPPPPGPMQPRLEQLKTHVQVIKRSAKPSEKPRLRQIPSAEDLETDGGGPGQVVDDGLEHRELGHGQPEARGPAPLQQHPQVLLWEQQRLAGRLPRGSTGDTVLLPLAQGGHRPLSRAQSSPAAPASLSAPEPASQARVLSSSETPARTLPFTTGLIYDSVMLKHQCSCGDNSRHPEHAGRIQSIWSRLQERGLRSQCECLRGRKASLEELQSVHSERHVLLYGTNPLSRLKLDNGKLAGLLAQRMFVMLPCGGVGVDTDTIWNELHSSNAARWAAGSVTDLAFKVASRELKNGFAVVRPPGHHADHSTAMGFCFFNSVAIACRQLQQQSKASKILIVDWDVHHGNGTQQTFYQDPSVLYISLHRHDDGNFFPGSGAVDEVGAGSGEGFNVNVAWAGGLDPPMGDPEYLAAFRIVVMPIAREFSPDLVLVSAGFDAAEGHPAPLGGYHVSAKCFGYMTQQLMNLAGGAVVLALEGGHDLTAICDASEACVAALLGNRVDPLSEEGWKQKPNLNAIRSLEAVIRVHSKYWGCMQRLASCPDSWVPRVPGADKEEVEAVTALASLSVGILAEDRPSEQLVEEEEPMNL
Procedure: as §1, §2

HDAC11 = target: T2, HDAC11 (Homo sapiens, UniProt Q96DB2); assay: in vitro HDAC inhibition assay (fluorescence), HDAC11; type: biochemical; settings: read-out: Percentage Inhibition
T2 sequence (Q96DB2 1-347): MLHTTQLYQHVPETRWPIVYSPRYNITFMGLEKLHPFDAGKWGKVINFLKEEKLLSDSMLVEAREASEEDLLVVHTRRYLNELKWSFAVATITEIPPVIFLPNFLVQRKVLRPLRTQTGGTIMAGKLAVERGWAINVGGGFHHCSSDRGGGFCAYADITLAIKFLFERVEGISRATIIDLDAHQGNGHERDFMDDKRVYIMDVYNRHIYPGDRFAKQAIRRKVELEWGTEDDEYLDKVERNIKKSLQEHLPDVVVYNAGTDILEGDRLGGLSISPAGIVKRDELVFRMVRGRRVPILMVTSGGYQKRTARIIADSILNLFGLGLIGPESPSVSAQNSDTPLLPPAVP
Procedure: as §1, §2

[1] = 30 mg twice weekly; cited from earlier work
[2] = 1,000 mg/m^2 IV once daily on days 1 to 5 of a 21-day cycle; cited from earlier work
[3] = in vivo; cited from earlier work

Sequence of HDAC4 (P56524 whole entry): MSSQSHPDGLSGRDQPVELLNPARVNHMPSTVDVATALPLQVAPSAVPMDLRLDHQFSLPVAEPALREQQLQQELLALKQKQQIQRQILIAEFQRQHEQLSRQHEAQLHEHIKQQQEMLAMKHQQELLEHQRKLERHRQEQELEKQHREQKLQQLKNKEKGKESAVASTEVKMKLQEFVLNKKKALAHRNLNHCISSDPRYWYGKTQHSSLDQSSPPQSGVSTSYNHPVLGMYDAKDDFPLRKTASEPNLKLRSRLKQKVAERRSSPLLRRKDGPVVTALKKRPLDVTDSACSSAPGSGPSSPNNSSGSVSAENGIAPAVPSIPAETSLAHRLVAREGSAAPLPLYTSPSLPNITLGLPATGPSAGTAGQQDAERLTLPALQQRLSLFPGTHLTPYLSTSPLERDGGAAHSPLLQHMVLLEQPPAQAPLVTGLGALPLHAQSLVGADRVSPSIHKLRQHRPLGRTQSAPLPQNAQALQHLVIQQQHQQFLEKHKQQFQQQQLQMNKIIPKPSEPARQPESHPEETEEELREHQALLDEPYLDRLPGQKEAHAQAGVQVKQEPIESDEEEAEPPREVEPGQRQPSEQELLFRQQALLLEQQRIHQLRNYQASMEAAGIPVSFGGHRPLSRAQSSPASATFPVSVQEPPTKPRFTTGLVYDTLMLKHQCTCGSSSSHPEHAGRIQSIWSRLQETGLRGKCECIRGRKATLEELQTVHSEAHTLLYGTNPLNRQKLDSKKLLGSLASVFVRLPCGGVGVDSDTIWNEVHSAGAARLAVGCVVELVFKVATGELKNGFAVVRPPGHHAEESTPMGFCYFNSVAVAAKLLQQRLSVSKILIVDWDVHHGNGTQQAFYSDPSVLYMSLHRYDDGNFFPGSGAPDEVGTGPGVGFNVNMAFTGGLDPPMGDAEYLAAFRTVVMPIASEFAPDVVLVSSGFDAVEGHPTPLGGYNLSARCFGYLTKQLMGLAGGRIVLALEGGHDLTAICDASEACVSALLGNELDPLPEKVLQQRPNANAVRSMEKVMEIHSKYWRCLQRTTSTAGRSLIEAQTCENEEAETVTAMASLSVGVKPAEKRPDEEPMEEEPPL
Sequence of HDAC9 (Q9UKV0 whole entry): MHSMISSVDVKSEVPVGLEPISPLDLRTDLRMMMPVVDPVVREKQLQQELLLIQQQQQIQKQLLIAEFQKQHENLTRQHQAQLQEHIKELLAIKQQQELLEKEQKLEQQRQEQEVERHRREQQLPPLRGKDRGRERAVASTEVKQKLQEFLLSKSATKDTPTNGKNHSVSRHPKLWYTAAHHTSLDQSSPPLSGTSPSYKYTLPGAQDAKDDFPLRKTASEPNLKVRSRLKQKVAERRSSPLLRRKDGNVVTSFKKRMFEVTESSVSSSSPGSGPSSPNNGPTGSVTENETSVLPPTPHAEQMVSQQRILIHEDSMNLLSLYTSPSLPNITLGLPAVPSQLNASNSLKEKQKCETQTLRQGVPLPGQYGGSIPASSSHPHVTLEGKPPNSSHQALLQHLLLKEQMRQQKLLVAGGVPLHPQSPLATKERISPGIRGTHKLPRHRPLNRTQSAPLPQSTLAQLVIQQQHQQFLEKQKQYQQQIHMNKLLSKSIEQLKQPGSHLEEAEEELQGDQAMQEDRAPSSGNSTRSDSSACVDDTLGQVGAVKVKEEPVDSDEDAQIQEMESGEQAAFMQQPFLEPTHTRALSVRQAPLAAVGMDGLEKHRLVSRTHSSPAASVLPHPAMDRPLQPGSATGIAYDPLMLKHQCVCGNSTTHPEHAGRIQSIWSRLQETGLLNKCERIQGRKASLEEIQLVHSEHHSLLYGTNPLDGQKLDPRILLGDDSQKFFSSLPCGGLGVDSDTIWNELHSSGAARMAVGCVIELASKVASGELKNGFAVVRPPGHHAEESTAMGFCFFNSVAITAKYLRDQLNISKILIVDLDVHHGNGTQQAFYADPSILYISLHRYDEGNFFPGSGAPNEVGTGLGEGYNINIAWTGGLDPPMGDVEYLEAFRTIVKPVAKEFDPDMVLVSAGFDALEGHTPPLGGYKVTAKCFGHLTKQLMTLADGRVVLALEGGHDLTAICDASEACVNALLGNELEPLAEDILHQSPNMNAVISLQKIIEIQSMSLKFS

C/C=C1\NC(=O)[C@H]2CSSCC/C=C/[C@H](CC(=O)N[C@H](C(C)C)C(=O)N2)OC(=O)[C@H](C(C)C)NC1=O [FK228, romidepsin, reference compound]
inhibition at 100 µM (HDAC9): < 17%
inhibition at 100 µM (HDAC4): < 17%
inhibition at 100 µM (HDAC7): < 17%
inhibition at 100 µM (HDAC11): < 17%

Nc1cc(F)ccc1NC(=O)c1ccc(CNC(=O)/C=C/c2cccnc2)cc1 [Chidamide, chidamide]
SAE rate [1]: 5%

O=C(/C=C/c1cccc(S(=O)(=O)Nc2ccccc2)c1)NO [belinostat]
Grade 3 or 4 adverse effect rate [2]: 47%

Nc1ccccc1NC(=O)c1ccc(CNC(=O)OCc2cccnc2)cc1 [MS-275, entinostat]
elimination half-life [3]: approximately 36 hours

Reference: patent US20240058347A1, “DOSAGES FOR HDAC TREATMENT WITH REDUCED SIDE EFFECTS” (VIRACTA THERAPEUTICS, INC., priority 2019, published 2024)
